Values of other authors, collected in US20240117023A1, “METHOD” (Agency for Science, Technology and Research, priority 2021, published 2024).

Tested on: RA and OA animal models
Settings: in vivo; cited from earlier work

Q: With `CN1C(=O)N(C[C@H](C(=O)NO)[C@@H](CC2CCCC2)C(=O)N2CCCCC2)C(=O)C1(C)C` [Trocade] as the compound, how does the “effect in animal models” value read?
A: protective effects against RA and OA
